Experimental data: patent US20240116875A1, “RATIONAL DESIGN, OPTIMIZATION, AND BIOLOGICAL EVALUATION OF NOVEL MEK4 INHIBITORS AGAINST PANCREATIC ADENOCARCINOMA” (NORTHWESTERN UNIVERSITY, priority 2022, published 2024)
Several values for one entry are separate records, joined by “and”; a condition that tells them apart may be missing. Equal values may be shown once. Read-outs that look alike come from different tables or passages of the source.

Assays:
[1] = target: T1, recombinant active full-length human MEK4 (Homo sapiens, UniProt P45985); experiment: ADP-Glo kinase activity assay, MEK4; format: biochemical
T1 construct: recombinant active full-length human MEK4 (Carna Biosciences); purchased Carna Biosciences
T1 sequence (P45985 1-399): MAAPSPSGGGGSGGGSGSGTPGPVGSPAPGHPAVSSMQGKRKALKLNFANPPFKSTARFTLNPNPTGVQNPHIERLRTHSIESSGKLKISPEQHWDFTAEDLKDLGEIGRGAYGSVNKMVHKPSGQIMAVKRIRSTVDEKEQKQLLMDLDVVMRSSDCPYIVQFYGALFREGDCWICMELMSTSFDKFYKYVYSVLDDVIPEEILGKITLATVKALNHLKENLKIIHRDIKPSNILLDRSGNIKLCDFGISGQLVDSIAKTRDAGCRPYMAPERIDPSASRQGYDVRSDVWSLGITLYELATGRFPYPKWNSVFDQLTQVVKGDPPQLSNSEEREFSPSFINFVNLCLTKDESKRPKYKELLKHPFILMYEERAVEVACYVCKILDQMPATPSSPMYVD
Description: (§1) Procedure for a 5 μL Kinase reaction using the ADP-Glo Kinase Assay Kit from Promega. Staurosporine was used as the positive control, and DMSO as the negative control. Activity of recombinant active full-length human MEK4 (Carna Biosciences) was measured using the ADP-Glo assay with recombinant full-length human p38α (MAPK14). Kinase reactions with MEK7 (Carna Biosciences) were done at the same concentration and amounts with recombinant full-length human p38α (MAPK14).
(§2) For each well, 4 ng of MEK4 and 600 ng of p38α in Kinase buffer (CST) were used, and 1 μL of this mixture was dispensed per well.
(§3) Inhibitor was prepared in a DMSO solution. A dose response dilution was done in a 384-well Echo transfer plate. […] This mixture was allowed to incubate for 30 minutes at room temperature.
(§4) Using a Mantis, 1 μL, of an 8 μM ATP solution was added to each well, and the plate was allowed to incubate for another 1 hour at room temperature. […] All experiments were done in triplicate on the plate, and at least in one separate technical duplicate.

MEK7 = target: T2, MEK7 (Homo sapiens, UniProt O14733); experiment: ADP-Glo kinase activity assay, MEK7; format: biochemical
T2 construct: purchased Carna Biosciences
T2 sequence (O14733 1-419): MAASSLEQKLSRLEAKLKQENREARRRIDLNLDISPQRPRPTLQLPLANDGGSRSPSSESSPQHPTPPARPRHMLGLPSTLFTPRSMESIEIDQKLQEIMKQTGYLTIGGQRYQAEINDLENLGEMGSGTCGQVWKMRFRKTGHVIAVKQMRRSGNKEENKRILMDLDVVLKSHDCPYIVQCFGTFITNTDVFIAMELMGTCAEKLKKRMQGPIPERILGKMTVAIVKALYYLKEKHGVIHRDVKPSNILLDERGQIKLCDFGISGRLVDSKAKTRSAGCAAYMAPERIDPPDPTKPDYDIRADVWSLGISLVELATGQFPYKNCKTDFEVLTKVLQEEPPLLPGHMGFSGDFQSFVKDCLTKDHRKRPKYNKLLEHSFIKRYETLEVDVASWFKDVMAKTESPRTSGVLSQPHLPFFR
Description: The compounds were then evaluated both in vitro and in a cellular system. When studying kinase inhibitors, there are a multitude of ways to evaluate selectivity across kinases.
as §1, §2, §3, §4

[2] = test system: phospho-p42/44 MAPK in CD18 cells; experiment: p42/44 MAPK phosphorylation, western blotting, CD18; format: cell-based, human; conditions: CD18, U0126 1 μM or 5 μM, 1 hour pretreatment
Description: (§5) The effects of different treatments on phospho-p42/44 MAPK and total p42/44 MAPK expression levels were determined by western blotting. HSP90 was used as loading control. The blots are representative of at least three biological replicates.
(§6) Whole cell extracts of cultured cells were prepared in radioimmunoprecipitation (RIPA) lysis buffer supplemented with phosphatase and protease inhibitors (Calbiochem). Protein concentration was determined by the bicinchoninic acid assay (BCA) (ThermoFisher) and separated by the SDS-PAGE technique. […] Secondary anti-mouse IgG (A4416) and anti-rabbit IgG (A6667) antibodies were purchased from Sigma-Aldrich and used a 1:4000 dilution. Images of blots were acquired on HyBlot ES Autoradiography Film (Thomas Scientific, Swedesboro, NJ, USA) following incubation with SuperSignal West Pico PLUS (ThermoFisher).

[3] = test system: phospho-p42/44 MAPK in MiaPaCa2 cells; experiment: p42/44 MAPK phosphorylation, western blotting, MiaPaCa2; format: cell-based, human; conditions: MiaPaCa2, U0126 1 μM or 5 μM
Description: as §5, §6

[4] = test system: phospho-p38 MAPK in HEK293T cells; experiment: p38 MAPK phosphorylation, western blotting, HEK293T; format: cell-based, human; conditions: anisomycin alone
Description: (§7) HSP90 was used as loading control. The blots are representative of at least three biological replicates.
(§8) We next evaluated the effects of our inhibitors on the phosphorylation activity and expression of MEK1/2, MEK3/6, and MEK7. […] We also evaluated the effects on p42/44 MAPK (ERK1/2), which functions downstream of MEK1/2.
as §6

[5] = test system: phospho-p42/44 MAPK in HEK293T cells; experiment: p42/44 MAPK (ERK1/2) phosphorylation, western blotting, HEK293T; format: cell-based, human; conditions: anisomycin alone
Description: as §7, §8, §6

[6] = headline value per compound, read-out: IC50 (MEK4, ADP-Glo)
[7] = individual experiment, values in brackets, n=3, read-out: IC50 of each experiment (IC50±SEM), MEK4
[8] = headline value per compound, read-out: MEK7 IC50
[9] = individual experiment, values in brackets, n=3, read-out: MEK7 IC50 of each experiment (IC50±SEM)

Cc1ccc2c(-c3ccc(S(N)(=O)=O)cc3)n[nH]c2c1 [Compound S4, 4-(6-methyl-1H-indazol-3-yl)benzenesulfonamide]
IC50 [1, 6]: 2.7 µM | IC50 [1, 7]: 1.6 µM and 3.7 µM

O=S(=O)(Nc1cccc(-c2n[nH]c3cc(F)ccc23)c1)c1cccnc1 [Compound 12a, N-(3-(6-fluoro-1H-indazol-3-yl)phenyl)pyridine-3-sulfonamide]
IC50 (MEK7; [8]): 1300 nM | IC50 (MEK7; [9]): 940 nM and 1600 nM

Nc1ccccc1-c1n[nH]c2cc(F)ccc12 [Compound 8b, 2-(6-fluoro-1H-indazol-3-yl)aniline]
IC50 [1, 6]: > 80 µM

CCC(=O)Nc1ccccc1-c1n[nH]c2cc(F)ccc12 [Compound 8c, N-(2-(6-fluoro-1H-indazol-3-yl)phenyl)propionamide]
IC50 [1, 6]: > 80 µM

CS(=O)(=O)c1ccc(NS(=O)(=O)c2cccc(-c3n[nH]c4cc(F)ccc34)c2)cc1 [Compound 15l]
IC50 (MEK7; [8]): 920 nM | IC50 (MEK7; [9]): 590 nM and 780 nM and 1400 nM

O=S(=O)(Nc1ccc(-c2n[nH]c3cc(F)ccc23)cc1)c1cccnc1 [Compound 11a, N-(4-(6-fluoro-1H-indazol-3-yl)phenyl)pyridine-3-sulfonamide]
IC50 (MEK7; [8]): 2700 nM | IC50 (MEK7; [9]): 1900 nM and 3500 nM

NS(=O)(=O)c1ccc(-c2n[nH]c3cc(C(F)(F)F)ccc23)cc1 [Compound S5, 4-(6-(trifluoromethyl)-1H-indazol-3-yl)benzenesulfonanamide]
IC50 [1, 6]: 3.7 µM | IC50 [1, 7]: 2.2 µM and 5.2 µM

C=CC(=O)Nc1ccccc1-c1n[nH]c2cc(F)ccc12 [Compound 8d, N-(2-(6-fluoro-1H-indazol-3-yl)phenyl)acrylamide]
IC50 [1, 6]: > 80 µM

O=S(=O)(Nc1ccccc1)c1cccc(-c2n[nH]c3cc(F)ccc23)c1 [Compound 14a, 3-(6-fluoro-1H-indazol-3-yl)-N-phenylbenzenesulfonamide]
IC50 (MEK7; [8]): 840 nM | IC50 (MEK7; [9]): 400 nM and 610 nM and 1500 nM

O=S(=O)(NC1CC1)c1ccc(-c2n[nH]c3cc(F)ccc23)cc1 [Compound 13c, N-cyclopropyl-4-(6-fluoro-1H-indazol-3-yl)benzenesulfonamide]
IC50 (MEK7; [8]): 8700 nM | IC50 (MEK7; [9]): 8100 nM and 9300 nM

Fc1ccc2c(-c3ccc4c(c3)OCO4)nn(Cc3ccccc3)c2c1 [Compound S3, 3-(benzo[d][1,3]dioxol-5-yl)-1-benzyl-6-fluoro-1H-indazole]
IC50 [1, 6]: > 80 µM

CC(C)Oc1ccc(NS(=O)(=O)c2cccc(-c3n[nH]c4cc(F)ccc34)c2)cc1 [Compound 15i, 3-(6-fluoro-1H-indazol-3-yl)-N-(4-isopropoxyphenyl)benzenesulfonamide]
IC50 (MEK7; [8]): 2900 nM | IC50 (MEK7; [9]): 1800 nM and 2200 nM and 4800 nM

CC(=O)c1ccc(NS(=O)(=O)c2cccc(-c3n[nH]c4cc(F)ccc34)c2)cc1 [Compound 15n, N-(4-acetylphenyl)-3-(6-fluoro-1H-indazol-3-yl)benzenesulfonamide]
IC50 (MEK7; [9]): 740 nM and 1300 nM and 1800 nM

Cn1nc(-c2ccc3c(c2)OCO3)c2ccc(F)cc21 [Compound S2, 3-(benzo[d][1,3]dioxol-5-yl)-6-fluoro-1-methyl-1H-indazole]
IC50 [1, 6]: > 80 µM

O=S(=O)(Nc1cccc(-c2n[nH]c3cc(F)ccc23)c1)C1CC1 [Compound 12c, N-(3-(6-fluoro-1H-indazol-3-yl)phenyl)cyclopropanesulfonamide]
IC50 (MEK7; [8]): 6400 nM | IC50 (MEK7; [9]): 5600 nM and 7100 nM

N#CC(=C(/N)Sc1ccccc1N)/C(C#N)=C(\N)Sc1ccccc1N [Compound U0126, reference compound]
effect of U0126 co-treatment on p42/44 MAPK phosphorylation increased by 15o and 10e [2]: suppressed | effect of U0126 on p42/44 MAPK phosphorylation [3]: decreased p42/44 MAPK phosphorylation

COc1ccc(C[C@H]2NC[C@H](O)[C@H]2OC(C)=O)cc1 [anisomycin, reference compound]
effect of anisomycin on p38 MAPK phosphorylation [4]: did induce phosphorylation | effect of anisomycin on p42/44 MAPK phosphorylation [5]: decreases p42/44 MAPK phosphorylation
